The source of these data is publication PMC5567267, “Discovery of a potent protein kinase D inhibitor: insights in the binding mode of pyrazolo[3,4-d]pyrimidine analogues” (MedChemComm, 2017).

Like-named read-outs stand apart in the source and are kept apart here. A value given as a limit tells only on which side of the number the result lay.

The target of the test is T1, PKD2 (Homo sapiens, UniProt Q9BZL6).
T1 construct: made in house; host or cells: HEK293T cells, transient transfection with pDEST27-PRKD2, stimulated with 500 nM PDB before lysis
T1 sequence (Q9BZL6 1-878): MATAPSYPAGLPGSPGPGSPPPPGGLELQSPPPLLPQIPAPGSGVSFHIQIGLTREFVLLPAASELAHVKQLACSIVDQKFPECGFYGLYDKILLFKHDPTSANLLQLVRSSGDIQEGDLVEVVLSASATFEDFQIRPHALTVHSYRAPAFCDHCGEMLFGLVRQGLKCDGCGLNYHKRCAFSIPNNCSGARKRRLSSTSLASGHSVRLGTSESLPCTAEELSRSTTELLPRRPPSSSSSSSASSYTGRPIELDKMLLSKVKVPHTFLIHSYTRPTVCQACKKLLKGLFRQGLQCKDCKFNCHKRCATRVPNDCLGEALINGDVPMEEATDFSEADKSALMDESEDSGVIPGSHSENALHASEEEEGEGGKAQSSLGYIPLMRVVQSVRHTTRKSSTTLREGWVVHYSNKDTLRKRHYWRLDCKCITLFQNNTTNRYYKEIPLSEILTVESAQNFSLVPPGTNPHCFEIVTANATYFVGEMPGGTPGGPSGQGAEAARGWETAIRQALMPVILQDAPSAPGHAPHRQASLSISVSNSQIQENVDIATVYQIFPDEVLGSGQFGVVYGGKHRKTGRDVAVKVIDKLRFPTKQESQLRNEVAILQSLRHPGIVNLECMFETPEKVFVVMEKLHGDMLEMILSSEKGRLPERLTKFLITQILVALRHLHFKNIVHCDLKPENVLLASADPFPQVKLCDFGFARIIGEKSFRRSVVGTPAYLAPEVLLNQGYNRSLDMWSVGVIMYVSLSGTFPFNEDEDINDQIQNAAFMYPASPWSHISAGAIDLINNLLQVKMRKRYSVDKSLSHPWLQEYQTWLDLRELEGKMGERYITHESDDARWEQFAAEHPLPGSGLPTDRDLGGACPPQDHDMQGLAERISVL
The test is described as follows: PKD2 screening assay (in vitro radiometric kinase assay). The note with it: for remaining activity at 1 µM: 10 min; for IC50: radiometric. Type of test: biochemical. As for the experimental part: All 35 described analogues were characterized in vitro via an initial screening at 1 μM against PKD2. […]
scanning of a coomassie stained SDS-polyacrylamide gel.
An in vitro radiometric assay was used to determine the inhibition of PKD in presence of various compounds at a […]
determinations. Reactions were carried out in 40µl of a mixture containing 50mM Tris-HCl pH 7.4, 10mM MgCl2, 50ng of PDB stimulated GST-PKD2, 4µg/ml Syntide-2 (Sigma Aldrich, St. Louis, USA), 25µM ATP and 2µCi [γ-32P]ATP (Perkin-Elmer, Massachusetts, USA). After 10’ the reaction was stopped by spotting 30µl of the reaction on whatmann P81 filter paper. The filter papers were washed 3 times in 0.5% phosphoric acid, followed by one wash in 100% acetone. Subsequently the papers were air-dried and counted using the Tri-Carb 2810 TR scintillation counter (Perkin-Elmer). Percentage of PKD2 inhibition was determined relative to a condition where no inhibitor was added (0,1% dimethylsulfoxide (DMSO)). Graphs were plotted and IC50 values were determined using the GraphPad software package (Prism). […]

Setting [1] is: ESI table, initial screening of all analogues at 1µM, read-out: % PKD2 activity remaining (1µM) (average ±SD).
Where [2] appears, read: compound at 1 μM, PDB stimulated GST-PKD2, Syntide-2, 25µM ATP, relative to no inhibitor (DMSO), read-out: % PKD 2 activity remaining (1 μM) (Average ± SD).
Where [3] appears, read: PDB stimulated GST-PKD2, Syntide-2, 25µM ATP.

Consider `CC(C)(C)n1nc(-c2ccc(F)cc2)c2c(N)ncnc21` [Compound 6b, 1-tert-butyl-3-(4-fluorophenyl)-1H-pyrazolo[3,4-d]pyrimidin-4-amine], for which the remaining activity at 1 µM under setting [1] was 81 ± 4%. Turning to `CC(C)(C)n1nc(Cc2ccc(Cl)c(Cl)c2)c2c(N)ncnc21` [Compound 7h, 1-tert-butyl-3-(3,4-dichlorobenzyl)-1H-pyrazolo[3,4-d]pyrimidin-4-amine], under setting [1], the remaining activity at 1 µM was 78 ± 3.3%. On to `COc1ccc(-c2nn(C(C)(C)C)c3ncnc(N)c23)cc1` [Compound 6e, 1-tert-butyl-3-(4-methoxyphenyl)-1H-pyrazolo[3,4-d]pyrimidin-4-amine], for which the remaining activity at 1 µM under setting [1] turned out to be 80 ± 7%. With `CCCCNc1nc(N)c2c(-c3cccc(Cl)c3)nn(C(C)(C)C)c2n1` [Compound 13b, N6-butyl-1-tert-butyl-3-(3-chlorophenyl)-1H-pyrazolo[3,4-d]pyrimidine-4,6-diamine], the remaining activity at 1 µM under setting [1] stood at 81 ± 6.6%. On to `CC(C)(C)n1nc(Cc2cccc(Cl)c2Cl)c2c(N)ncnc21` [Compound 7g, 1-tert-butyl-3-(2,3-dichlorobenzyl)-1H-pyrazolo[3,4-d]pyrimidin-4-amine], for which, under setting [1], the remaining activity at 1 µM was found to be 90 ± 5.1%. On to `CC(C)(C)n1nc(-c2ccccc2F)c2c(N)ncnc21` [Compound 6d, 1-tert-butyl-3-(2-fluorophenyl)-1H-pyrazolo[3,4-d]pyrimidin-4-amine], for which the remaining activity at 1 µM under setting [1] amounted to 83 ± 9.4%. Take `CCCCNc1nc(N)c2c(-c3ccc4ccccc4c3)nn(C(C)(C)C)c2n1` [Compound 13g, N6-butyl-1-tert-butyl-3-(2-naphthyl)-1H-pyrazolo[3,4-d]pyrimidine-4,6-diamine]: under setting [1], the remaining activity at 1 µM turned out to be 76 ± 2.7%. Regarding `Cn1nc(Cc2cccc(Cl)c2)c2c(N)ncnc21` [Compound 7d, 3-(3-chlorobenzyl)-1-methyl-1H-pyrazolo[3,4-d]pyrimidin-4-amine], the remaining activity at 1 µM is, setting by setting: under setting [1], 83 ± 6.4%; under setting [2], 83 ± 6.4%. Further, under setting [3], inhibition was half-maximal at 4.84 µM (IC50). As for `CC(C)(C)n1nc(Cc2cccc(Br)c2)c2c(N)ncnc21` [Compound 7f, 3-(3-bromobenzyl)-1-tert-butyl-1H-pyrazolo[3,4-d]pyrimidin-4-amine], the remaining activity at 1 µM under setting [1] stood at 59 ± 3.3%. In the case of `CC(C)(C)n1nc(Cc2ccccc2Cl)c2c(N)ncnc21` [Compound 7b, 1-tert-butyl-3-(2-chlorobenzyl)-1H-pyrazolo[3,4-d]pyrimidin-4-amine], the remaining activity at 1 µM is, setting by setting: under setting [1], 41 ± 2.6%; under setting [2], 41 ± 2.6%. In addition, half-maximal inhibition under setting [3] (IC50) was put at 0.451 µM.

Regarding “2-acetyl-5-(4-amino-1-(tert-butyl)-1H-pyrazolo[3,4-d]pyrimidin-3-yl)benzaldehyde [Compound 6f]”, the “% PKD2 activity remaining (1µM) (average ±SD)” value (ESI table, initial screening of all analogues at 1µM) is recorded as 81 ±4.5%. On to `CC(C)(C)n1nc(-c2ccccc2)c2c(N)ncnc21` [Compound 6a, 1-tert-butyl-3-phenyl-1H-pyrazolo[3,4-d]pyrimidin-4-amine], for which the remaining activity at 1 µM was 77 ± 2.9% under setting [1] and 76 ± 2.9% under setting [2]. The IC50 – broadly, the midpoint of a concentration-inhibition curve – under setting [3] stood at 9.49 µM. For the molecule `CCCCNc1nc(N)c2c(-c3ccc(F)cc3)nn(C(C)(C)C)c2n1` [Compound 13c, N6-butyl-1-tert-butyl-3-(4-fluorophenyl)-1H-pyrazolo[3,4-d]pyrimidine-4,6-diamine], the remaining activity at 1 µM under setting [1] is 69 ± 8.3%.

Turning to `CC(C)(C)n1nc(CCCCc2ccccc2)c2c(N)ncnc21` [Compound 7k, 1-tert-butyl-3-(4-phenylbutyl)-1H-pyrazolo[3,4-d]pyrimidin-4-amine], the remaining activity at 1 µM came to 92.8 ± 5.8% under setting [1] and 93 ± 5.8% under setting [2]. Under setting [3], this molecule came in with an IC50 of over 50 µM. In the case of `CC(C)(C)n1nc(-c2ccccc2Cl)c2c(N)ncnc21` [Compound 6c, 1-tert-butyl-3-(2-chlorophenyl)-1H-pyrazolo[3,4-d]pyrimidin-4-amine], the remaining activity at 1 µM under setting [1] was determined as 73 ± 2.4%. Turning to `CC(C)(C)n1nc(-c2cccc3ccccc23)c2c(N)ncnc21` [Compound 6i, 1-tert-butyl-3-(1-naphthyl)-1H-pyrazolo[3,4-d]pyrimidin-4-amine], the remaining activity at 1 µM under setting [1] was determined as 34 ± 0.4% and the remaining activity at 1 µM under setting [2] was 34 ± 0.4%. The same molecule returned an IC50 under setting [3] of 0.403 µM. For the molecule `CC(C)(C)n1nc(-c2ccc3ccccc3c2)c2c(N)ncnc21` [Compound 6h, 1-tert-butyl-3-(2-naphthyl)-1H-pyrazolo[3,4-d]pyrimidin-4-amine], the remaining activity at 1 µM under setting [1] is 59 ± 5%.

`CC(C)(C)n1nc(CCCc2ccccc2)c2c(N)ncnc21` [Compound 7i, 1-tert-butyl-3-(3-phenylpropyl)-1H-pyrazolo[3,4-d]pyrimidin-4-amine]: the remaining activity at 1 µM is 101 ± 8.3% under setting [1] and 101 ± 8.3% under setting [2]. The same molecule gave an IC50 under setting [3] of over 50 µM. Regarding `CCCCNc1nc(N)c2c(-c3ccc(OC)cc3)nn(C(C)(C)C)c2n1` [Compound 13d, N6-butyl-1-tert-butyl-3-(4-methoxyphenyl)-1H-pyrazolo[3,4-d]pyrimidine-4,6-diamine], the remaining activity at 1 µM under setting [1] was 80 ± 2.5%.

For `Cn1nc(Cc2cccc3ccccc23)c2c(N)ncnc21` [Compound 7m, 1-methyl-3-(1-naphthylmethyl)-1H-pyrazolo[3,4-d]pyrimidin-4-amine], the remaining activity at 1 µM under setting [1] is 64 ± 3.9% and the remaining activity at 1 µM under setting [2] turned out to be 64 ± 3.9%. In addition, the IC50 under setting [3] came out at 4.66 µM. Regarding `CC(C)(C)n1nc(-c2ccc(C#N)cc2)c2c(N)ncnc21` [Compound 6j, 4-(4-amino-1-(tert-butyl)-1H-pyrazolo[3,4-d]pyrimidin-3-yl)benzonitrile], the remaining activity at 1 µM under setting [1] was found to be 97 ± 0.8%.

`CC(C)(C)n1nc(Cc2ccccc2Br)c2c(N)ncnc21` [Compound 7e, 3-(2-bromobenzyl)-1-tert-butyl-1H-pyrazolo[3,4-d]pyrimidin-4-amine]: the remaining activity at 1 µM reads like this: under setting [1], 43 ± 6.6%; under setting [2], 43 ± 6.6%. For the same molecule, the IC50 under setting [3] was determined as 0.535 µM.

`CCCCNc1nc(N)c2c(-c3ccsc3)nn(C(C)(C)C)c2n1` [Compound 13e, N6-butyl-1-tert-butyl-3-(3-thienyl)-1H-pyrazolo[3,4-d]pyrimidine-4,6-diamine]: under setting [1], the remaining activity at 1 µM came out at 82 ± 7.2%. Same read-out and setting: under `C=Cc1ccc(-c2nn(C(C)(C)C)c3ncnc(N)c23)cc1` [Compound 6g, 1-(tert-butyl)-3-(4-vinylphenyl)-1H-pyrazolo[3,4-d]pyrimidin-4-amine] stands 84 ± 9.4%; under `Cn1nc(CCCc2ccccc2)c2c(N)ncnc21` [Compound 7j, 1-methyl-3-(3-phenylpropyl)-1H-pyrazolo[3,4-d]pyrimidin-4-amine], 101 ± 3.3%; under `CC(C)(C)c1ccc(-c2nn(C(C)(C)C)c3ncnc(N)c23)cc1` [Compound 6k, 1-(tert-butyl)-3-(4-(tert-butyl)phenyl)-1H-pyrazolo[3,4-d]pyrimidin-4-amine], 93 ± 1.5%. With `CC(C)(C)n1nc(Cc2cccc(Cl)c2)c2c(N)ncnc21` [Compound 7c, 1-tert-butyl-3-(3-chlorobenzyl)-1H-pyrazolo[3,4-d]pyrimidin-4-amine], the remaining activity at 1 µM under setting [1] was 56 ± 2.4% and the remaining activity at 1 µM under setting [2] is 55 ± 2.4%. On to `CCCCNc1nc(N)c2c(-c3ccccc3)nn(C(C)(C)C)c2n1` [Compound 13a, N6-butyl-1-tert-butyl-3-phenyl-1H-pyrazolo[3,4-d]pyrimidine-4,6-diamine], for which the remaining activity at 1 µM under setting [1] was 77 ± 5.1%. Take `CCCCNc1nc(N)c2c(-c3cccc(C(F)(F)F)c3)nn(C(C)(C)C)c2n1` [Compound 13f, N6-butyl-1-tert-butyl-3-[3-(trifluoromethyl)phenyl]-1H-pyrazolo[3,4-d]pyrimidine-4,6-diamine]: the remaining activity at 1 µM under setting [1] was 91 ± 8.5%.
